From patent US20140242093A1, “METHODS AND COMPOSITIONS FOR MODULATING THE INNATE IMMUNE RESPONSE AND/OR MYOGENESIS IN A MAMMALIAN SUBJECT” (FRED HUTCHINSON CANCER RESEARCH CENTER, priority 2011, published 2014)

System: control human primary myoblasts
Test: Expression microarray of primary myoblasts transduced with lentivirus carrying DUX4-fl, DUX4-s or GFP
Description: Primary human myoblasts were collected and cultured as previously described (Snider et al., 2010). Primary myoblasts were maintained at or below 70% confluency for proliferation. For differentiation, cells were allowed to reach 95-100% confluency in growth medium. Once confluency was reached, the cells were changed to differentiation medium (F10 media supplemented with 1% horse serum, 10 μg/mL insulin, and 10 μg/mL transferrin, penicillin/streptomycin) and maintained for 4 days. Human RD cells were grown in DMEM in 10% bovine calf serum (Hyclone) and penicillin/streptomycin. The primary myoblasts were transduced with lentivirus carrying DUX-fl, DUX4- or GFP (MOI=15).
Expression microarrays were performed on the transduced cells at 24 hours after transduction as follows. […] Samples were analyzed by Illumina Human Whole Genome microarrays. Probe intensities were corrected, normalized, and summarized by the Lumi package of Bioconductor (Du et al., 2008). Differentially expressed genes were identified by the LIMMA package of Bioconductor (Wettenhall and Smyth, 2004). Gene set enrichment analysis (GSEA) was performed using the Bioconductor GOstats package (Falcon and Gentleman, 2007).

DUX4-fl: full-length DUX4 protein (SEQ ID NO:110), expressed from lentiviral or pCS2 vectors or in vitro translated
GPBAR1 expression fc (Refseq NM_170699.2): 1.936
NLRX1 fc (Refseq NM_170722.1): −1.167
fc of HSCB (expression array) (Refseq NM_172002.3): −1.009
fc of ZNF650 (expression array) (Refseq NM_172070.2): −1.016
fc of IL4I1 (expression array) (Refseq NM_172374.1): −0.7571
KLF17 expression fc (Refseq NM_173484.3): 1.779
fc of RCOR2 (expression array) (Refseq NM_173587.2): −1.051
fc of DCBLD1 (expression array) (Refseq NM_173674.1): −0.667
WARS expression fc (Refseq NM_173701.1, cultured human skeletal muscle): −1.917
fc of C3orf38 (expression array) (Refseq NM_173824.2): −0.5458
fc of UBR1 (expression array) (Refseq NM_174916.1): −0.08618
fc of C4orf34 (expression array) (Refseq NM_174921.1): −1.044
FRMD3 fc (Refseq NM_174938.3): −1.116
MT1E expression fc (Refseq NM_175617.3, cultured human skeletal muscle): −2.067
TXLNA fc (Refseq NM_175852.3): −1.157
MT1M expression fc (Refseq NM_176870.2, cultured human skeletal muscle): −2.921
PPAP2A fc (Refseq NM_176895.1): −1.106
CSE1L expression fc (Refseq NM_177436.1): 2.937
PPM1B expression fc (Refseq NM_177968.2): 1.831
fc of STARD13 (expression array) (Refseq NM_178006.1): −1.001
RILPL1 fc (Refseq NM_178314.2): −1.072
HIF1A fc (Refseq NM_181054.1): −1.15
ID1 fc (Refseq NM_181353.1): −1.166
C1QTNF3 expression fc (Refseq NM_181435.4): 1.974
PPP2R2B expression fc (Refseq NM_181677.1): 4.13
PPP2R2C fc (Refseq NM_181876.2): −1.064
BCL9L fc (Refseq NM_182557.2): −1.111
fc of IRF2BP2 (expression array) (Refseq NM_182972.2): −1.041
fc of TRIM69 (expression array) (Refseq NM_182985.3): −1.002
fc of TRIM55 (expression array) (Refseq NM_184086.1): −1.053
RBM39 expression fc (Refseq NM_184234.1): 1.8
INO80C expression fc (Refseq NM_194281.3): 1.98
SPTY2D1 expression fc (Refseq NM_194285.2): 3.286
fc of RNASE4 (expression array) (Refseq NM_194431.1): −1.06
BID fc (Refseq NM_197966.1): −1.078
fc of MZF1 (expression array) (Refseq NM_198055.1): −1.004
fc of ARSK (expression array) (Refseq NM_198150.1): −0.8435
fc of SRC (expression array) (Refseq NM_198291.1): −1.041
fc of APOOL (expression array) (Refseq NM_198450.3): −0.5757
DENND2C expression fc (Refseq NM_198459.2): 2.609
TPRX1 expression fc (Refseq NM_198479.2): 4.483
AGRN expression fc (Refseq NM_198576.2, cultured human skeletal muscle): −2.612
C1QTNF1 expression fc (Refseq NM_198594.1, cultured human skeletal muscle): −3.846
fc of SERPINB8 (expression array) (Refseq NM_198833.1): −0.1046
SEMA4B expression fc (Refseq NM_198925.1, cultured human skeletal muscle): −1.94
C9orf169 expression fc (Refseq NM_199001.1, cultured human skeletal muscle): −2.509
T1560 expression fc (Refseq NM_199048.1): 2.769
XAF1 expression fc (Refseq NM_199139.1, cultured human skeletal muscle): −3.622
SAA1 expression fc (Refseq NM_199161.1, cultured human skeletal muscle): −4.138
C20orf117 fc (Refseq NM_199181.2): −1.08
fc of TMEM189-UBE2V1 (expression array) (Refseq NM_199203.1): −1.036
DGKA expression fc (Refseq NM_201554.1, cultured human skeletal muscle): −1.955
fc of ZMYM3 (expression array) (Refseq NM_201599.1): −1.022
FBXO33 expression fc (Refseq NM_203301.1): 3.22
SYNJ1 expression fc (Refseq NM_203446.1): 2.433
fc of CMPK2 (expression array) (Refseq NM_207315.2): −0.8826
CYP4V2 fc (Refseq NM_207352.2): −1.159
fc of C15orf52 (expression array) (Refseq NM_207380.1): −1.016
FLJ45337 expression fc (Refseq NM_207465.1): 3.685
ATP2B1 fc (Refseq NM_001001323.1): −1.082
FLJ45139 expression fc (Refseq NM_001001692.1): 2.451
OR2T34 expression fc (Refseq NM_001001821.1): 4.519
fc of GPM6B (expression array) (Refseq NM_001001995.1): −0.3998
NT5C1B expression fc (Refseq NM_001002006.1): 3.495
fc of NT5C3 (expression array) (Refseq NM_001002010.1): −0.6592
RAB11FIP1 expression fc (Refseq NM_001002814.1): 1.987
fc of LEPR (expression array) (Refseq NM_001003679.1): −1
ZNF705A expression fc (Refseq NM_001004328.1): 6.832
HIST2H3A expression fc (Refseq NM_001005464.2): 4.945
GBA fc (Refseq NM_001005742.1): −1.065
SIAH1 expression fc (Refseq NM_001006610.1): 3.699
OPTN fc (Refseq NM_001008213.1): −1.113
SLC7A2 expression fc (Refseq NM_001008539.2, cultured human skeletal muscle): −2.482
CXCR4 expression fc (Refseq NM_001008540.1): 2.004
fc of CLSTN1 (expression array) (Refseq NM_001009566.1): −1.009
PRAMEF4 expression fc (Refseq NM_001009611.1): 7.06
C6orf191 expression fc (Refseq NM_001010876.1): 2.091
PRAMEF6 expression fc (Refseq NM_001010889.2): 5.826
PRAMEF9 expression fc (Refseq NM_001010890.1): 7.131
PRAMEF8 expression fc (Refseq NM_001012276.1): 3.701
PRAMEF7 expression fc (Refseq NM_001012277.1): 7.631
